Experimental data as given in PMC8195388, “Heterologous Expression of Cyclodextrin Glycosyltransferase my20 in Escherichia coli and Its Application in 2-O-α-D-Glucopyranosyl-L-Ascorbic Acid Production” (Frontiers in Microbiology, 2021).

Test system: T1, recombinant CGTase MY20 (my20)
T1 construct: codon-optimized my20 gene in pET-24a(+), E. coli BL21(DE3), intracellular, Ni-NTA purified
Test: AA-2G synthesis, HPLC […] nm, ping-pong fit
Type: biochemical, metagenome: marine microorganisms, Mariana Trench
Conditions: pH 5, 40°C

| KmA (glucosyl acceptor, co-substrate beta-cyclodextrin 0.5-25 g/L) [g/L] | KmB (glucosyl donor, co-substrate L-ascorbic acid 1-50 g/L) [g/L] | SMILES |
| --- | --- | --- |
| 9.2 ± 0.06 |  | O=C1O[C@H]([C@@H](O)CO)C(O)=C1O [L-ascorbic acid] |
|  | 6.9 ± 0.04 | OC[C@H]1O[C@@H]2O[C@H]3[C@H](O)[C@@H](O)[C@@H](O[C@H]4[C@H](O)[C@@H](O)[C@@H](O[C@H]5[C@H](O)[C@@H](O)[C@@H](O[C@H]6[C@H](O)[C@@H](O)[C@@H](O[C@H]7[C@H](O)[C@@H](O)[C@@H](O[C@H]8[C@H](O)[C@@H](O)[C@@H](O[C@H]1[C@H](O)[C@H]2O)O[C@@H]8CO)O[C@@H]7CO)O[C@@H]6CO)O[C@@H]5CO)O[C@@H]4CO)O[C@@H]3CO [β-CD] |
